In PubChem BioAssay (NCI):
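Grown in 96-well plates, cells were treated for 48 hours with each compound at five concentrations. Insufficient inhibition: endpoint recorded as highest concentration tested. GI50 = concentration required for 50% inhibition of growth. At the TGI there is no net growth.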

Columns and labels:
Assay in all cases: NCI anticancer screen, dose series, 48 h
DMS 114 small cell lung = test system: DMS 114 small cell lung
SR leukemia = test system: SR leukemia
A498 renal = test system: A498 renal
LXFL 529 NSCLC = test system: LXFL 529 NSCLC
SN12C renal = test system: SN12C renal
CAKI-1 renal = test system: CAKI-1 renal
SF-268 CNS = test system: SF-268 CNS
MALME-3M melanoma = test system: MALME-3M melanoma
TK-10 renal = test system: TK-10 renal
PC-3 prostate = test system: PC-3 prostate

| Compound | TGI (DMS 114 small cell lung) [µM] | TGI (SR leukemia) [µM] | TGI (A498 renal) [µM] | TGI (LXFL 529 NSCLC) [µM] | TGI (SN12C renal) [µM] | TGI (CAKI-1 renal) [µM] | TGI (SF-268 CNS) [µM] | TGI (MALME-3M melanoma) [µM] | TGI (TK-10 renal) [µM] | GI50 (DMS 114 small cell lung) [µM] | GI50 (SR leukemia) [µM] | GI50 (A498 renal) [µM] | GI50 (LXFL 529 NSCLC) [µM] | GI50 (SN12C renal) [µM] | GI50 (CAKI-1 renal) [µM] | GI50 (SF-268 CNS) [µM] | GI50 (MALME-3M melanoma) [µM] | GI50 (TK-10 renal) [µM] | GI50 (PC-3 prostate) [µM] | TGI (PC-3 prostate) [µM] |
| --- | --- | --- | --- | --- | --- | --- | --- | --- | --- | --- | --- | --- | --- | --- | --- | --- | --- | --- | --- | --- |
| CNC(=O)OCc1nc(SC2CCCCO2)n(C)c1COC(=O)NC (configuration not stated) | > 100 | > 100 | > 100 | > 100 | > 100 | > 100 | > 100 | > 100 | – | – | – | – | – | – | – | – | – | – | – | – |
| NC(=S)N/N=C(/CC(=O)c1ccccc1)C(=O)Nc1ccc(Cl)c(Cl)c1 | > 100 | – | > 100 | > 100 | > 100 | > 100 | > 100 | > 100 | > 100 | – | – | – | – | – | – | – | – | – | – | – |
| COc1ccccc1NC(=O)C1=C(C)NC(C)=C(C(=O)Nc2ccccc2OC)C1c1ccccc1F | > 100 | > 100 | > 100 | > 100 | > 100 | > 100 | > 100 | > 100 | > 100 | – | – | – | – | – | – | – | – | – | – | – |
| COC(=O)CCC(NC(=S)N/N=C(\C)c1nccs1)C(=O)OC (configuration not stated) | 57.5 | – | > 100 | > 100 | > 100 | – | > 100 | > 100 | > 100 | – | – | – | – | – | – | – | – | – | – | – |
| CCCc1[nH]nc(CCC(=O)N(Cc2ccccc2)Cc2ccccc2)c1CC | > 100 | – | > 100 | > 100 | > 100 | > 100 | > 100 | > 100 | > 100 | – | – | – | – | – | – | – | – | – | – | – |
| CC(C)C(=O)Nc1nc2nc[nH]c2c(=O)[nH]1 | > 100 | > 100 | > 100 | > 100 | > 100 | > 100 | > 100 | > 100 | > 100 | – | – | – | – | – | – | – | – | – | – | – |
| O=C([O-])c1ccccc1Nc1ccccn1.O=C([O-])c1ccccc1Nc1ccccn1.[Ni+2] | > 100 | > 100 | > 100 | > 100 | > 100 | > 100 | > 100 | > 100 | – | > 100 | > 100 | > 100 | 55.2 | > 100 | > 100 | 75.7 | > 100 | – | – | – |
| CNS(=O)(=O)NN(C)S(=O)(=O)c1ccc(F)cc1 | > 100 | – | > 100 | > 100 | > 100 | > 100 | > 100 | > 100 | > 100 | – | – | – | – | – | – | – | – | – | – | – |
| CCCCCCCCCc1cc(=O)c2ccc(OCc3ccccc3)cc2o1 | > 100 | – | – | > 100 | > 100 | 13.4 | > 100 | > 100 | > 100 | – | – | – | – | – | – | – | – | – | – | – |
| COCCN1C2=CCCCC2=Nc2c1nc(N)[nH]c2=O | > 100 | > 100 | > 100 | > 100 | > 100 | > 100 | > 100 | > 100 | > 100 | – | – | – | – | – | – | – | – | – | – | – |
| Cc1ccncc1.[O]=[Ge].[O]=[Ge].[O]=[Ge].[O]=[Ge].[O]=[Ge].[O]=[Ge][OH].[O]=[Ge][OH] | > 100 | > 100 | > 100 | > 100 | > 100 | > 100 | > 100 | > 100 | > 100 | > 100 | > 100 | > 100 | > 100 | > 100 | > 100 | > 100 | > 100 | > 100 | – | – |
| O=C(O)c1ccc([Se][Se]c2ccc(C(=O)O)cc2)cc1 | 54 | – | – | 62.4 | > 100 | 36.7 | > 100 | 68.3 | 54.1 | – | – | – | – | – | – | – | – | – | – | – |
| O=Cc1cn(C(=O)c2ccccc2)c2ccccc12 | > 100 | – | > 100 | > 100 | – | > 100 | – | > 100 | > 100 | – | – | – | – | – | – | – | – | – | – | – |
| C=CCC1([C@H](C)[C@@H](OC(C)=O)c2cc(OC)c(OC)c(OC)c2)C[C@@H](OC)CCC1=O (some centres not stated) | 44.4 | 91.7 | – | 31.2 | 37 | > 100 | 50.7 | 43.1 | > 100 | – | – | – | – | – | – | – | – | – | – | – |
| CC1CCCCc2nc3c(c(=O)n21)CCCC3 (configuration not stated) | – | – | – | > 100 | > 100 | > 100 | > 100 | > 100 | > 100 | – | – | – | – | – | – | – | – | – | – | – |
| C=CCc1c2c(c(OC)c3ccoc13)C(=O)/C(=C/c1ccccc1OC)O2 | – | > 100 | 79.2 | – | > 100 | 35.2 | 60.4 | > 100 | > 100 | – | 3.16 | 5.81 | – | 4.85 | 3.15 | 3.73 | 19.8 | 6.5 | 5.25 | > 100 |
| Cc1ccc(/C=C2\CN(C(=O)OC(C)(C)C)C/C(=C\c3ccc(C)cc3)C2=O)cc1 | – | > 100 | > 100 | – | > 100 | > 100 | > 100 | > 100 | > 100 | – | 0.0346 | – | – | 0.393 | 0.576 | 0.34 | – | > 40.7 | 0.452 | > 100 |
| COc1cccc(/C=C/C(=O)c2cccc(Nc3nc(Nc4ccccc4)nc(Nc4ccccc4)n3)c2)c1 | – | 9.13 | 17.7 | – | > 100 | > 60.8 | > 89.9 | > 100 | > 93.1 | – | 1.89 | 6.04 | – | 48.5 | > 22.4 | 20.9 | > 48.7 | 41.5 | 5.21 | > 67.2 |
| CC(=O)NC(CCCNCc1ccccc1)C(=O)NCc1ccccc1 (configuration not stated) | > 100 | – | > 100 | > 100 | > 100 | > 100 | > 100 | > 100 | > 100 | – | – | – | – | – | – | – | – | – | – | – |
| Cc1cc(N(CCC#N)S(=O)(=O)c2ccccc2)ccc1/C=C1N=C(/C=C/c2ccccc2)OC\1=O | > 100 | – | > 100 | > 100 | > 100 | > 100 | > 100 | > 100 | > 100 | – | – | – | – | – | – | – | – | – | – | – |
| COC(=O)[C@H](Cc1cn(C)cn1)NC(=O)[C@H](Cc1c[nH]c2ccccc12)NC(=O)Nc1cc(C(F)(F)F)cc(C(F)(F)F)c1 | – | > 10 | > 10 | – | > 10 | > 10 | > 10 | > 10 | > 10 | – | > 10 | > 10 | – | > 10 | > 10 | > 10 | > 10 | > 10 | > 10 | > 10 |
